In patent US12195771B2, “Combination chemotherapy for the treatment of cancer” (WISCONSIN ALUMNI RESEARCH FOUNDATION, priority 2017, dated 2025):

B1: R4C/G38R/R39G/N67R/G89R/S90R/V118C RNase 1 (protein, UniProt P07998 29-156, looked up, variant R4C G38R R39G N67R G89R S90R V118C)
Ribonuclease pancreatic: KESCAKKFQRQHMDSDSSPSSSSTYCNQMMRRRNMTQRGCKPVNTFVHEPLVDVQNVCFQEKVTCKRGQGNCYKSNSSMHITDCRLTNRRRYPNCAYRTSPKERHIIVACEGSPYVPCHFDASVEDST
notes: gift from Quintessence Biosciences

Legend:
[1] = tested on: human lung cancer cells (A549); assay: Assay of cell viability with a single drug (tetrazolium dye-based MTS assay), A549; settings: single agent, 48 h, value ± SE, n = 3
Procedure: To test this hypothesis, we treated human lung cancer cells for 48 h with trametinib or with three other kinase inhibitors: PD 0332991 (which is a CDK4/CDK6 inhibitor), bosutinib (which is a Src family kinase inhibitor), or crizotinib (which is an ALK inhibitor) (Boschelli et al., 2001; Fry et al., 2004; Zou et al., 2007). We measured cell viability with a tetrazolium dye-based assay for metabolic activity. The ensuing EC50 values are listed in a Table 1 and in the table in FIG. 10.
(§1) Cells in complete growth medium were plated at 5,000 cells per well in a 96-well microplate, which was incubated for 24 h. […] After 48 h, the medium was removed, and cells were incubated for 2 h with CellTiter 96® MTS reagent from Promega. Absorbance was recorded on an M1000 fluorimeter from Tecan (Morrisville, NC) at 490 nm. Data were analyzed with Prism 5.0 software from GraphPad (La Jolla, CA). Values of EC50, which is the concentration of a drug that gives half-maximal cell viability, were calculated with the equation: […]
(§2) where y is cell viability, x is the concentration of drug, and h is the Hill coefficient. Data were plotted on a log scale with each data point being the mean of 3 biological replicates.

[2] = tested on: H358 cells (KRAS G12C); assay: Assay of cell viability with two drugs (ARS-853 + ptRNase), H358; format: cell-based, human; settings: 5×5 matrix, CI (FIG. 4C)
Procedure: (§3) The EC50 values obtained from single-drug cell viability assays were used to design subsequent drug combination experiments. Two-drug combination experiments were performed by using a 5×5 matrix in 96-well plates to interrogate 25 dosing pairs. Cells in complete growth medium were plated at 5,000 cells per well in a 96-well microplate, which was incubated for 24 h at 37° C. […] After 48 h, cell viability was evaluated as described above.
(§4) The dose-effect curve for each drug was determined based on experimental observations and was compared to the effect afforded by the two-drug combination to derive a CI value. The CI values for all combinations were calculated using CalcuSyn 2.0 from Biosoft (Cambridge, UK). […] Each CI value was the mean of the results from 3 biological replicates.

[3] = tested on: human A549 lung cancer cells; assay: Assay of cell viability with two drugs (kinase inhibitor + ptRNase), A549; format: cell-based; settings: for Synergism with ptRNase?: A549 cells, two-drug combination with ptRNase
Procedure: We measured cell viability with a tetrazolium dye-based assay for metabolic activity.
We used the EC50 values obtained from single-drug treatment (Table 1) to design subsequent drug combination experiments. Two-drug combination experiments were performed using a 5×5 matrix to interrogate 25 concentration ratios per combination.
as §3, §4

[4] = target: G12C variant of KRAS (Homo sapiens, UniProt P01116, G12C); settings: Patricelli et al., 2016, Lito et al.; cited from earlier work
Sequence of G12C variant of KRAS (P01116 1-188 isoform P01116-2 G12C): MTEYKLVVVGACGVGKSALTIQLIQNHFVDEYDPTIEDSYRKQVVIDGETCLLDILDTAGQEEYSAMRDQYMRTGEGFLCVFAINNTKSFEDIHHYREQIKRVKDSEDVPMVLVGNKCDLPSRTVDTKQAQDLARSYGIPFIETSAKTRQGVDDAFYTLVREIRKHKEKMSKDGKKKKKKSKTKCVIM

[5] = tested on: phosphorylation of MEK, ERK, RSK and RI in SK-MEL-28 cells; assay: Immunoblotting and pull-down of biotinylated RI after kinase inhibitor treatment; format: cell-based, human; settings: for phosphorylation of MEK / phosphorylation of ERK and RSK: SK-MEL-28, 24 h; for phosphorylation of MEK: bosutinib 5 μM, crizotinib 2 μM, PD 0332991 2 μM, selumetinib 10 nM, dabrafenib 10 nM, trametinib 1 nM; for phosphorylation of ERK and RSK: same inhibitor concentrations as FIG. 6; for phosphorylation of RI (α-pSer, α-pThr): biotinylated RI captured from SK-MEL-28 cells, 24 h inhibitor treatment
Procedure: FIGS. 6A-6B are immunoblots showing that inhibition of the ERK pathway prevents the phosphorylation of RI in SK-MEL-28 cells. Cells transfected to produce biotinylated RI were treated with bosutinib (5 μM), crizotinib (2 μM), PD 0332991 (2 μM), selumetinib (10 nM), dabrafenib (10 nM), or trametinib (1 nM) for 24 h. (A) Treatment with inhibitors of non-ERK pathway kinases has no effect on the phosphorylation of MEK, ERK, or RSK in cell lysates. Treatment with dabrafenib reduces the phosphorylation of MEK (α-pMEK ½ lane) as well as that of ERK and RSK (α-pERK ½, and α-pRSK lanes). Treatment with selumetinib and trametinib reduces the phosphorylation of ERK and RSK. (B) Treatment with inhibitors of non-ERK pathway kinases has no effect on phosphorylation of biotinylated RI, which was captured by using streptavidin-coated magnetic beads. Inhibition of ERK-pathway kinases diminishes phosphorylation of RI (α-pThr, and α-pSer lanes).
The inventors further confirmed the apparent effect of kinase inhibitors on RI phosphorylation by immunoblotting. Biotinylated RI was isolated by using streptavidin-coated magnetic beads from SK-MEL-28 cells after transient transfection for 48 h. To detect phosphorylated species, we used α-pSer or α-pThr. […] These biochemical data provide direct evidence that kinases in the ERK pathway are indeed responsible for phosphorylating RI, in agreement with the observed synergism.
Cells grown in a 10-cm dish were lysed with 1 mL of M-PER™ Mammalian Protein Extraction Reagent (a mammalian protein extraction reagent that contains a mild, nondenaturing detergent) containing PIERCE™ Protease Inhibitor Tablets (tablets containing protease inhibitors AEBSF, aprotinin, bestatin, E-64, leupeptin, and pepstatin A), PIERCE™ Phosphatase Inhibitor Tablets (sodium fluoride, sodium orthovanadate, sodium pyrophosphate, and beta-glycerophosphate for broad-spectrum inhibition of phosphatase activity), and DTT (1 mM). Cell lysates were subjected to centrifugation for 10 min at 14,000 g to remove cell debris, and the total protein concentration in the supernatant was determined with a Bradford protein assay. Protein (˜30 μg) was separated by SDS-PAGE using a gel from Biorad (Hercules, CA), and the resulting gel was subjected to transfer to a PVDF membrane with an IBLOT® 2 (a dry transfer device that performs western blotting transfer without the need for liquid buffers) dry transfer system. The membrane was blocked for 1 h in a solution of BSA (5% w/v) in TBS-Tween (TBS-T), washed, and then incubated overnight at 4° C. with an antibody (1:500 dilution) in TBS-T containing BSA (5% w/v). After another wash with TBS-T, membranes were incubated with secondary antibody (1:3000 dilution), washed again, and then detected with an Amersham ECL Select Western Blotting Detection Reagent and by an ImageQuant™ LAS4000 instrument from GE Healthcare (Marlborough, MA).
For pull-down assays, after isolation of the total protein, samples were incubated overnight at 4° C. with Streptavidin […]® (magnetic particles coated with streptavidin) Paramagnetic Particles from Promega. The beads were washed (3×) with PBS containing 1 mM DTT. Samples were eluted with 50 μL of SDS gel-loading dye and processed further for immunoblotting.

[6] = tested on: V600E/K variants of BRAF; settings: Kefford et al., 2010; King et al., 2013; cited from earlier work
[7] = tested on: human melanoma cells (SK-MEL-28, A375, Malme-3M); assay: Assay of cell viability with two drugs, melanoma cell lines; format: cell-based; settings: across three melanoma cell lines (FIG. 5)
Procedure: None of the agents were toxic to normal skin fibroblasts at the tested doses (FIG. 10).
as §3, §4

[8] = tested on: H358 cells (KRAS G12C); assay: Assay of cell viability with a single drug (MTS assay), H358; format: cell-based, human
Procedure: as §1, §2

Row | Molecule | Synergism with ptRNase? [3] | EC50 ([1]; Homo sapiens) | phosphorylation of MEK [5] | phosphorylation of ERK and RSK [5] | phosphorylation of RI (α-pSer, α-pThr) [5] | other results
1 | C=CC(=O)N1CC(N2CCN(C(=O)CNc3cc(C4(C)CC4)c(Cl)cc3O)CC2)C1 [ARS-853] | Yes |  |  |  |  | EC50 [1]: 74 ± 8 µM; effect of combination with the ptRNase [2]: enhanced the efficacy of both agents; synergy with the ptRNase judged by combination index (CI) ([3]; A549, 5×5 concentration matrix, kinase inhibitor 1 h then ptRNase, 48 h): additive effect; cellular inhibitory activity against the G12C variant of KRAS [4]: robust cellular inhibitory activity
2 | COc1cc(Nc2c(C#N)cnc3cc(OCCCN4CCN(C)CC4)c(OC)cc23)c(Cl)cc1Cl [Bosutinib] |  | 0.73 ± 0.06 µM |  |  |  | 
3 | C[C@@H](Oc1cc(-c2cnn(C3CCNCC3)c2)cnc1N)c1c(Cl)ccc(F)c1Cl [Crizetinib] |  | 0.11 ± 0.02 µM | insignificant effects | insignificant effects | Strong bands for phosphorylated RI | 
4 | CC(C)(C)c1nc(-c2cccc(NS(=O)(=O)c3c(F)cccc3F)c2F)c(-c2ccnc(N)n2)s1 [Dabrafenib] | Yes | 40 ± 5 µM | only a weak band of phosphorylated MEK | no detectable phosphorylation | no detectable phosphorylation | inhibitory activity against the V600E/K variants of BRAF [6]: robust inhibitory activity; effect of combination with trametinib (without ptRNase) [7]: additive effect; synergy of combination with the ptRNase [7]: strong synergy
5 | CC(=O)c1c(C)c2cnc(Nc3ccc(N4CCNCC4)cn3)nc2n(C2CCCC2)c1=O [PD 0332991] | No | 0.24 ± 0.04 µM | insignificant effects | insignificant effects | Strong bands for phosphorylated RI | 
6 | Cn1cnc2c(F)c(Nc3ccc(Br)cc3Cl)c(C(=O)NOCCO)cc21 [Selumetinib] |  | 43 ± 5 µM |  |  |  | 
7 | CC(=O)Nc1cccc(-n2c(=O)n(C3CC3)c(=O)c3c(Nc4ccc(I)cc4F)n(C)c(=O)c(C)c32)c1 [Trametinib] |  | 5.7 ± 0.6 µM |  |  |  | 
8 | B1 |  |  |  |  |  | EC50 [1]: 62 ± 7 µM; EC50 ([8]; H358 cells (KRAS G12C), single agent, mean ± SEM, n = 3): 3.6 ± 0.6 µM; cytotoxicity to H358 cells compared to A549 cells ([8]; H358 versus A549): 20 fold
